# Measured values published in US20260324697A1, “MATERIALS AND METHODS FOR MASKING BITTERNESS” (UNIVERSITY OF FLORIDA RESEARCH FOUNDATION, INCORPORATED, priority 2023, published 2026).
# Structures can show the parent of a compound that is named as a salt.
# Columns and labels:
# Type in all cases: in vivo, persons (trained panelists)
# [1] = Sensory panel testing of bitterness reduction of 500 ppm caffeine solutions; conditions: for Panel Score (0-15), bitterness: 0: no bitterness, 15: very bitter
# Description: (§1) Sensory testing was used to identify extracts that provide bitterness reduction and to evaluate the degree of bitterness reduction provided by specific compounds. In general, bitterness sensory testing involved providing test solutions to trained panelists who rated the perceived bitterness of test solutions. Panels consisted of three persons who can taste phenylthiocarbamide (PTC) test paper, and panelists were selected based on their ability to discriminate differences in the concentrations of bitterness. Panelists swirled an aliquot of a solution in the mouth for 15 seconds, spit out the test solution, and rated the perceived bitterness intensity of the solution on a scale of 0 to 15 (0: no bitterness, 15: very bitter). Panelists drank water after each test solution evaluation to remove the bitterness before evaluating the next solution.
# (§2) Panel testing results can be used to quantify perceived changes in bitterness. The change in perceived bitterness of an ingestible composition following addition of a bitter-masking agent is defined herein as the percent change in the bitterness panel test rating of a composition to which a bitter-masking agent has been added compared to the bitterness panel test rating of the otherwise identical composition without the bitter-masking agent. For instance, if a composition is given a bitterness intensity rating of 8, and the same composition with addition of an amount of bitter-masking agent is given a bitterness intensity rating of 6, then the bitter-masking agent has provided a perceived change in bitterness of 25%.
# Compound 1 was evaluated by sensory panel testing for bitterness reduction of caffeine solutions. A solution of 500 ppm caffeine in distilled water was used as a control solution having high bitterness, and Compound 1 was added to aliquots of the control solution to provide test solutions containing 500 ppm caffeine and 25, 50, or 100 ppm of Compound 1.
# [2] = Sensory panel testing of perceived sweetness of 6 ppm sucrose solutions; conditions: for Panel Score (0-15), sweetness: 0: no sweetness, 15: very sweet
# Description: Similar panel testing was done to evaluate perceived sweetness of test solutions. Panelists swirled an aliquot of test solution in the mouth for 15 seconds, spit out the test solution, and rated the perceived sweetness intensity of the test solution on a scale of 0 to 15 (0: no sweetness, 15: very sweet). Panelists drank water after each test solution evaluation before evaluating the next test solution.
# Panel testing results can be used to quantify perceived changes in sweetness in an analogous manner. The change in perceived sweetness of an ingestible composition following addition of a bitter-masking agent or other agent is defined herein as the percent change in the sweetness panel test rating of a composition to which a bitter-masking agent or other agent has been added compared to the sweetness panel test rating of the otherwise identical composition without the bitter-masking agent or other agent. For instance, if a composition is given a sweetness intensity rating of 8, and the same composition with addition of an amount of bitter-masking agent or other agent is given a sweetness intensity rating of 6, then the bitter-masking agent or other agent has provided a perceived change in sweetness of 25%.
# A similar panel test was performed to assess whether the efficacy of Compound 1 at masking bitterness is derived from imparting sweetness. A solution of 6 ppm sucrose in distilled water was used as a sweetness control solution, and Compound 1 was added to three aliquots of the sweetness control solution to provide test solutions containing 6 ppm sucrose and 25, 50, or 100 ppm of Compound 1. Panelists then evaluated the sweetness intensity of each test solution.
# [3] = Sensory panel testing of bitterness reduction of 6 ppm quinine solutions; conditions: for Panel Score (0-15), bitterness: 0: no bitterness, 15: very bitter
# Description: as §1, §2
# Compound 1 was evaluated by sensory panel testing. A solution of 6 ppm quinine monohydrochloride dihydrate in distilled water was used as a control solution having high bitterness, and Compound 1 was added to aliquots of the control solution to provide test solutions containing 6 ppm quinine and 25, 50, or 100 ppm of Compound 1.
# Compounds 2-5 were also evaluated by sensory panel testing in the same manner as Compound 1.
# Sensory panel tests were also performed to evaluate whether crude extracts from allspice would be effective at reducing bitterness. Allspice was mixed with boiling water to obtain a crude aqueous mixture, and solvent was removed from the crude aqueous mixture using rotary evaporation to obtain a crude extract. The crude extract was used without further purification. An aqueous solution containing 6 ppm quinine was used as a bitterness control solution, and the crude extract was added to aliquots of the control solution to provide test solutions containing 6 ppm quinine and 100 ppm or 1000 ppm of the crude extract. The three solutions were evaluated by a sensory panel as described above.
structure (smiles),measurement,setting,value
"Cn1c(=O)c2c(ncn2C)n(C)c1=O [caffeine, reference compound]","Panel Score (0-15), bitterness",[1]; 500 ppm caffeine alone (control),3.0
"OC[C@H]1O[C@@](CO)(O[C@H]2O[C@H](CO)[C@@H](O)[C@H](O)[C@H]2O)[C@@H](O)[C@@H]1O [sucrose, reference compound]","Panel Score (0-15), sweetness",[2]; 6 ppm sucrose alone (control),7.0
"C=C[C@H]1C[N@@]2CC[C@H]1C[C@H]2[C@H](O)c1ccnc2ccc(OC)cc12 [quinine, quinine monohydrochloride dihydrate, reference compound]","Panel Score (0-15), bitterness","[3]; 6 ppm quinine alone (control), Example 2",6.0
same,"Panel Score (0-15), bitterness","[3]; 6 ppm quinine alone (control), Example 3",6.0
"COc1cc(C[C@@H](O)CO)ccc1O [Compound 1, (2R)-3-(4-hydroxy-3-methoxyphenyl) propane-1,2-diol]",perceived bitterness of quinine solutions,"[3]; 6 ppm quinine, 25, 50, or 100 ppm Compound 1",markedly reduced the perceived bitterness of quinine solutions
same,"Panel Score (0-15), bitterness",[3]; 25 ppm Compound 1 added to 6 ppm quinine,5.0
same,"Panel Score (0-15), bitterness",[3]; 50 ppm Compound 1 added to 6 ppm quinine,3.0
same,"Panel Score (0-15), bitterness",[3]; 100 ppm Compound 1 added to 6 ppm quinine,0.8
same,"Panel Score (0-15), bitterness",[1]; 25 ppm Compound 1 added to 500 ppm caffeine,3.5
same,"Panel Score (0-15), bitterness",[1]; 50 ppm Compound 1 added to 500 ppm caffeine,4.0
same,"Panel Score (0-15), bitterness",[1]; 100 ppm Compound 1 added to 500 ppm caffeine,3.8
same,masking of the bitterness of caffeine solutions,"[1]; 500 ppm caffeine, 25, 50, or 100 ppm Compound 1",did not significantly mask the bitterness of caffeine solutions
same,contribution to perceived sweetness of the test solutions,"[2]; 6 ppm sucrose, 25, 50, or 100 ppm Compound 1",did not contribute to perceived sweetness of the test solutions
same,"Panel Score (0-15), sweetness",[2]; 25 ppm Compound 1 added to 6 ppm sucrose,7.2
same,"Panel Score (0-15), sweetness",[2]; 50 ppm Compound 1 added to 6 ppm sucrose,6.8
same,"Panel Score (0-15), sweetness",[2]; 100 ppm Compound 1 added to 6 ppm sucrose,7.2
